Laboratory results from US20230250123A1, “GUT MICROBIOTA BIOACTIVATED PDE4 INHIBITOR PRECURSORS” (Giiant Pharma Inc., priority 2020, published 2023).

How the values were obtained:
[1] = In vitro rate of glycoside prodrug hydrolysis in feces supernatant, rat; format: in vitro ADME; details: 100 µM, 37° C., pH 6.5, 24 hr
Description: In vitro rate of glycoside prodrugs hydrolysis. The metabolic stability of prodrug candidates to release the parent PDE4 inhibitor could be assessed in vitro according, but not restricted, to the following protocol: feces were collected overnight on a mixture of dry and wet ice in a metabolic cage. Ten volumes (v/w; 30 mL) of 100 mM phosphate buffer (pH 6.5) were added to 3 g of freshly collected rodent feces. The mixture was homogenized with a Stomacher Circulator 400 (2 × 1 min-cycles at 225 rpm). The mixture was transferred to a 50 mL tubes, centrifuged at 10 000xg for 10 min (4° C.) and the supernatant was passed through a 0.45 µm-filter. In a 96 deep-well plate, 198 µL of feces supernatant were aliquoted in 2 wells per compound. Each compound, including positive control, was tested in duplicate. Then 2 µL of 10 mM stock solution of each test compound were spiked in individual wells (duplicate) at a final concentration of 100 µM and samples were sealed and mixed 30 sec at 1000 rpm using a vortexer. Samples were incubated at 37° C. for the desired time in the Thermomixer with constant agitation (300 rpm). At desired time-point, 25 µL of reaction mixture was added to 225 µL of ice-cold quenching solution (acetonitrile + 0.1% (v/v) formic acid) to stop the bacterial enzymatic activity. The quenched incubates were mixed and centrifuged 10 min at 21 000xg at 4° C. A real t0 (no metabolism, 100% total recovery of unchanged prodrug) was generated by adding 22.5 µL of feces supernatant to 225 µL of ice-cold quenching solution (acetonitrile + 0.1% (v/v) formic acid). Then 2.5 µL of 1 mM solution of each test compounds was added, sealed, mixed thoroughly and centrifuged 10 min at 21 000xg at 4° C. All samples, including analytical standards, were analyzed by LC-MS/MS to measure the concentration of the parent PDE4 inhibitor released and the concentration of the corresponding prodrug remaining. A set criteria of 100% recovery is targeted where the summation of the % of prodrug remaining and the % of parent PDE4 inhibitor released should be 100% with an experimental error tolerance of ± 20%. When prodrugs represented by Formula (I) were incubated 24 hours under the conditions described above using mouse, rat and dog feces, the glycoside prodrugs were hydrolyzed to release the corresponding parent PDE4 inhibitor III (Table 3). As a negative control, when compound 4, 10 and 21 were incubated 24 hours under the conditions described above but in the absence of enzyme activities, using mouse feces extract supernatant inactivated by boiling the supernatant 10 minutes, 100% of the prodrugs were recovered unchanged.

[2] = Bidirectional Caco-2 permeability assay; format: in vitro ADME; details: human; Caco-2, 10 µM, apical pH 6.0 / basolateral pH 7.4, average of 2 determinations
Description: In vitro glycoside prodrug permeability assessment. The permeability of the glycoside prodrugs were measured using the bidirectional Caco-2 assay. Caco-2 cells were seeded onto permeable polycarbonate supports in 12-well Costar Transwell plates and allowed to grow and differentiate for 21-25 days. On day 24, culture medium (DMEM supplemented with 10% FBS, 1% non-essential amino acids and penicillin/streptomycin) was removed from both sides of the transwell inserts and cells were rinsed with warm HBSS. […] The buffer in the donor chamber (apical side for A-to-B assay, basolateral side for B-to-A assay) was removed and replaced with the working solution (10 µM test article in transport buffer). The plates were then placed at 37° C. under light agitation. At designated time points (30, 60 and 90 min); an aliquot of transport buffer from the receiver chamber was removed and replenished with fresh transport buffer. Samples were quenched with ice-cold CH3CN containing internal standard and then centrifuged to precipitate the protein. Resulting supernatants were further diluted with 50/50 ACN/H2O (H2O only for Atenolol) and submitted for LC/MS/MS analysis. […] Atenolol and propranolol were tested as low and […] permeability references. […] The apparent permeability (Papp, measured in cm/s) of a compound is determined according to the following formula: […]
Where dQ/dt is the net rate of appearance in the receiver compartment, A is the area of the Transwell measured in cm^2 (1.12 cm^2), C0 is the initial concentration of compound added to the donor chamber and 60 is the conversion factor for the minute to second.

| Prodrug Remaining @ 24 hr (%) [1] [%] | Papp A→B at 10 µM [2] [×10⁻⁶ cm/s] | SMILES |
| --- | --- | --- |
| 0.5 | 0.07 | OC[C@H]1O[C@@H](Oc2ccc(C[C@@H](c3ccc(OC(F)F)c(OC4CC4)c3)c3cnc(C(O)(C(F)(F)F)C(F)(F)F)s3)cn2)[C@H](O)[C@@H](O)[C@@H]1O [Compound 2, (2S,3R,4S,5S,6R)-2-((5-((S)-2-(3-cyclopropoxy-4-(difluoromethoxy)phenyl)-2-(2-(1,1,1,3,3,3-hexafluoro-2-hydroxypropan-2-yl)thiazol-5-yl)ethyl)pyridin-2-yl)oxy)-6-(hydroxymethyl)tetrahydro-2 H-pyran-3,4,5-triol] |
| 23 |  | COC(=O)[C@H]1O[C@@H](Oc2ccc(C[C@@H](c3ccc(OC(F)F)c(OC4CC4)c3)c3cnc(C(O)(C(F)(F)F)C(F)(F)F)s3)cn2)[C@H](OC(C)=O)[C@@H](OC(C)=O)[C@@H]1OC(C)=O [Compound 6, (2S,3R,4S,5S,6S)-2-((5-((S)-2-(3-cyclopropoxy-4-(difluoromethoxy)phenyl)-2-(2-(1,1,1,3,3,3-hexafluoro-2-hydroxypropan-2-yl)thiazol-5-yl)ethyl)pyridin-2-yl)oxy)-6-(methoxycarbonyl)tetrahydro-2H-pyran-3,4,5-triyl triacetate] |
| 35 | 1 | COC(=O)[C@H]1O[C@@H](Oc2ccc(C[C@@H](c3ccc(OC(F)F)c(OC4CC4)c3)c3cnc(C(O)(C(F)(F)F)C(F)(F)F)s3)cn2)[C@H](O)[C@@H](O)[C@@H]1O [Compound 7, (2S,3S,4S,5R,6S)-methyl 6-((5-((S)-2-(3-cyclopropoxy-4-(difluoromethoxy)phenyl)-2-(2-(1,1,1,3,3,3-hexafluoro-2-hydroxypropan-2-yl)thiazol-5-yl)ethyl)pyridin-2-yl)oxy)-3,4,5-trihydroxytetrahydro-2H-pyran-2-carboxylate] |
|  | 0.6 | COC(=O)[C@H]1O[C@@H](Oc2ccc(C[C@H](c3ccc(C(C)(C)O)nc3)c3ccc(OC(F)F)c(OC4CC4)c3)cn2)[C@H](OC(C)=O)[C@@H](OC(C)=O)[C@@H]1OC(C)=O [Compound 8, (2S,3R,4S,5S,6S)-2-((5-((S)-2-(3-cyclopropoxy-4-(difluoromethoxy)phenyl)-2-(6-(2-hydroxypropan-2-yl)pyridin-3-yl)ethyl)pyridin-2-yl)oxy)-6-(methoxycarbonyl)tetrahydro-2H-pyran-3,4,5-triyl triacetate] |
| 74 | 1.5 | CNC(=O)[C@H]1O[C@@H](Oc2ccc(C[C@@H](c3ccc(OC(F)F)c(OC4CC4)c3)c3cnc(C(O)(C(F)(F)F)C(F)(F)F)s3)cn2)[C@H](O)[C@@H](O)[C@@H]1O [Compound 15, (2S,3S,4S,5R,6S)-methyl 6-((5-((S)-2-(3-cyclopropoxy-4-(difluoromethoxy)phenyl)-2-(2-(1,1,1,3,3,3-hexafluoro-2-hydroxypropan-2-yl)thiazol-5-yl)ethyl)pyridin-2-yl)oxy)-3,4,5-trihydroxytetrahydro-2H-pyran-2-carboxamide] |
| 0.0 | 0.1 | CC(C)(O)c1ccc([C@@H](Cc2ccc(O[C@@H]3O[C@H](CO)[C@H](O)[C@H](O)[C@H]3O)nc2)c2ccc(OC(F)F)c(OC3CC3)c2)cn1 [Compound 18, (2S,3R,4S,5R,6R)-2-((5-((S)-2-(3-cyclopropoxy-4-(difluoromethoxy)phenyl)-2-(6-(2-hydroxypropan-2-yl)pyridin-3-yl)ethyl)pyridin-2-yl)oxy)-6-(hydroxymethyl)tetrahydro-2H-pyran-3,4,5-triol] |
| 0.0 | 0.2 | CC(C)(O)c1ccc([C@@H](Cc2ccc(O[C@H]3O[C@H](CO)[C@@H](O)[C@H](O)[C@@H]3O)nc2)c2ccc(OC(F)F)c(OC3CC3)c2)cn1 [Compound 20, (2R,3S,4S,5S,6R)-2-((5-((S)-2-(3-cyclopropoxy-4-(difluoromethoxy)phenyl)-2-(6-(2-hydroxypropan-2-yl)pyridin-3-yl)ethyl)pyridin-2-yl)oxy)-6-(hydroxymethyl)tetrahydro-2H-pyran-3,4,5-triol] |
| 93 | 2.4 | CN(C)[C@H]1[C@H](Oc2ccc(C[C@@H](c3ccc(OC(F)F)c(OC4CC4)c3)c3cnc(C(O)(C(F)(F)F)C(F)(F)F)s3)cn2)O[C@H](CO)[C@@H](O)[C@@H]1O [Compound 27, (2R,3S,4R,5R,6S)-6-((5-((S)-2-(3-cyclopropoxy-4-(difluoromethoxy)phenyl)-2-(2-(1,1,1,3,3,3-hexafluoro-2-hydroxypropan-2-yl)thiazol-5-yl)ethyl)pyridin-2-yl)oxy)-5-(dimethylamino)-2-(hydroxymethyl)tetrahydro-2H-pyran-3,4-diol] |

| SMILES | Prodrug Remaining @ 24 hr (%) [1] [%] | Papp A→B at 10 µM [2] [×10⁻⁶ cm/s] |
| --- | --- | --- |
| CC(=O)OC[C@H]1O[C@@H](Oc2ccc(C[C@H](c3ccc(C(C)(C)O)nc3)c3ccc(OC(F)F)c(OC4CC4)c3)cn2)[C@H](OC(C)=O)[C@@H](OC(C)=O)[C@@H]1OC(C)=O [Compound 3, (2R,3R,4S,5R,6S)-2-(acetoxymethyl)-6-((5-((S)-2-(3-cyclopropoxy-4-(difluoromethoxy)phenyl)-2-(6-(2-hydroxypropan-2-yl)pyridin-3-yl)ethyl)pyridin-2-yl)oxy)tetrahydro-2H-pyran-3,4,5-triyl triacetate] | 0.1 | 1.4 |
| CC(=O)OC[C@H]1O[C@@H](Oc2ccc(C[C@H](c3ccc(C(C)(C)O)nc3)c3ccc(OC(F)F)c(OC4CC4)c3)cn2)[C@H](OC(C)=O)[C@@H](OC(C)=O)[C@H]1OC(C)=O [Compound 17, (2R,3S,4S,5R,6S)-2-(acetoxymethyl)-6-((5-((S)-2-(3-cyclopropoxy-4-(difluoromethoxy)phenyl)-2-(6-(2-hydroxypropan-2-yl)pyridin-3-yl)ethyl)pyridin-2-yl)oxy)tetrahydro-2H-pyran-3,4,5-triyl triacetate] | 0.0 |  |
| CC(=O)OC[C@H]1O[C@H](Oc2ccc(C[C@H](c3ccc(C(C)(C)O)nc3)c3ccc(OC(F)F)c(OC4CC4)c3)cn2)[C@@H](OC(C)=O)[C@@H](OC(C)=O)[C@@H]1OC(C)=O [Compound 19, (2R,3R,4S,5S,6R)-2-(acetoxymethyl)-6-((5-((S)-2-(3-cyclopropoxy-4-(difluoromethoxy)phenyl)-2-(6-(2-hydroxypropan-2-yl)pyridin-3-yl)ethyl)pyridin-2-yl)oxy)tetrahydro-2H-pyran-3,4,5-triyl triacetate] | 0.7 |  |
| CC(=O)OC[C@H]1O[C@@H](O[C@H]2[C@H](OC(C)=O)[C@@H](OC(C)=O)[C@H](Oc3ccc(C[C@H](c4ccc(C(C)(C)O)nc4)c4ccc(OC(F)F)c(OC5CC5)c4)cn3)O[C@@H]2COC(C)=O)[C@H](OC(C)=O)[C@@H](OC(C)=O)[C@@H]1OC(C)=O [Compound 30, (2R,3R,4S,5R,6S)-2-(acetoxymethyl)-6-(((2R,3R,4S,5R,6S)-4,5-diacetoxy-2-(acetoxymethyl)-6-((5-((S)-2-(3-cyclopropoxy-4-(difluoromethoxy)phenyl)-2-(6-(2-hydroxypropan-2-yl)pyridin-3-yl)ethyl)pyridin-2-yl)oxy)tetrahydro-2H-pyran-3-yl)oxy)tetrahydro-2H-pyran-3,4,5-triyl triacetate] | 10 | 0.5 |
